Reference: ChEMBL document CHEMBL4477263, “Nature-inspired design of tetraindoles: Optimization of the core structure and evaluation of structure-activity relationship” (Bioorg Med Chem Lett, 2016)
The source made the active and inactive calls. The rule behind the calls is not given here.

Legend:
[1] = test system: MDA-MB-231; assay: Antiproliferative activity against human MDA-MB-231 cells after 48 hrs by MTT assay; type: functional, cell-based; details: MDA-MB-231, 48 h
[2] = test system: MIA PaCa-2; assay: Cell cycle arrest in human MIAPaCa2 cells assessed as accumulation in G2/M phase at 0.6 uM after 36 hrs by propidium iodide staining based flow cytometry relative to control; type: functional
[3] = test system: MIA PaCa-2; assay: Cell cycle arrest in human MIAPaCa2 cells assessed as accumulation in G2/M phase at 0.6 uM after 24 hrs by propidium iodide staining based flow cytometry relative to control; type: functional
[4] = test system: MIA PaCa-2; assay: Cell cycle arrest in human MIAPaCa2 cells assessed as accumulation in S phase at 0.6 uM after 24 hrs by propidium iodide staining based flow cytometry (reference value: 38%); type: functional
[5] = test system: NCI-H460; assay: Antiproliferative activity against human H460 cells after 48 hrs by MTT assay; type: functional, cell-based; details: NCI-H460, 48 h
[6] = test system: MIA PaCa-2; assay: Induction of apoptosis in human MIAPaCa2 cells assessed as live cells at 0.6 uM after 24 hrs by Annexin V-FITC/propidium iodide staining based flow cytometry (reference value: 98.3%); type: functional
[7] = test system: SK-HEP1; assay: Antiproliferative activity against human SKHEP1 cells after 48 hrs by MTT assay; type: functional, cell-based; details: SK-HEP1, 48 h
[8] = test system: MIA PaCa-2; assay: Induction of apoptosis in human MIAPaCa2 cells assessed as late apoptotic cells at 0.6 uM after 24 hrs by Annexin V-FITC/propidium iodide staining based flow cytometry (reference value: 0.16%); type: functional
[9] = test system: MIA PaCa-2; assay: Induction of apoptosis in human MIAPaCa2 cells assessed as upregulation of cleaved PARP protein expression at 0.2 to 0.8 uM after 12 to 48 hrs by western immunoblot analysis; type: functional, cell-based
[10] = test system: MIA PaCa-2; assay: Cell cycle arrest in human MIAPaCa2 cells assessed as accumulation in S phase at 0.6 uM after 48 hrs by propidium iodide staining based flow cytometry (reference value: 19.7%); type: functional
[11] = test system: U-87 MG; assay: Antiproliferative activity against human U87 cells after 48 hrs by MTT assay; type: functional, cell-based, U-87MG ATCC
[12] = test system: MIA PaCa-2; assay: Induction of apoptosis in human MIAPaCa2 cells assessed as early apoptotic cells at 0.6 uM after 48 hrs by Annexin V-FITC/propidium iodide staining based flow cytometry (reference value: 1.28%); type: functional
[13] = test system: MIA PaCa-2; assay: Antiproliferative activity against human MIAPaCa2 cells after 48 hrs by MTT assay; type: functional, cell-based; details: MIA PaCa-2, 48 h
[14] = test system: MIA PaCa-2; assay: Induction of apoptosis in human MIAPaCa2 cells assessed as necrotic cells at 0.6 uM after 36 hrs by Annexin V-FITC/propidium iodide staining based flow cytometry (reference value: 0.06%); type: functional
[15] = test system: MIA PaCa-2; assay: Induction of apoptosis in human MIAPaCa2 cells assessed as early apoptotic cells at 0.6 uM after 24 hrs by Annexin V-FITC/propidium iodide staining based flow cytometry (reference value: 1.49%); type: functional
[16] = test system: MIA PaCa-2; assay: Induction of apoptosis in human MIAPaCa2 cells assessed as early apoptotic cells at 0.6 uM after 36 hrs by Annexin V-FITC/propidium iodide staining based flow cytometry (reference value: 1.7%); type: functional
[17] = test system: MIA PaCa-2; assay: Induction of apoptosis in human MIAPaCa2 cells assessed as early apoptotic cells at 0.6 uM after 12 hrs by Annexin V-FITC/propidium iodide staining based flow cytometry (reference value: 1%); type: functional
[18] = test system: MIA PaCa-2; assay: Antitumor activity against human MIAPaCa2 cells xenografted in NOD/SCID mouse assessed as tumor growth inhibition at 25 mg/kg, ip administered every 3.5 days per week for 5 weeks measured on day 38 post treatment relative to control; type: functional; details: MIA PaCa-2, ip, read-out: TGI
[19] = test system: A549; assay: Antiproliferative activity against human A549 cells after 48 hrs by MTT assay; type: functional, cell-based; details: A549, 48 h
[20] = test system: Mahlavu; assay: Antiproliferative activity against human Mahlavu cells after 48 hrs by MTT assay; type: functional, cell-based
[21] = test system: MIA PaCa-2; assay: Cell cycle arrest in human MIAPaCa2 cells assessed as accumulation in S phase at 0.6 uM after 36 hrs by propidium iodide staining based flow cytometry (reference value: 38%); type: functional
[22] = test system: MIA PaCa-2; assay: Induction of apoptosis in human MIAPaCa2 cells assessed as down regulation of Bcl-2 protein expression at 0.2 to 0.8 uM after 12 to 48 hrs by western immunoblot analysis; type: functional, cell-based
[23] = test system: MIA PaCa-2; assay: Induction of apoptosis in human MIAPaCa2 cells assessed as live cells at 0.6 uM after 36 hrs by Annexin V-FITC/propidium iodide staining based flow cytometry (reference value: 98%); type: functional
[24] = test system: NCI-H441; assay: Antiproliferative activity against human H441 cells after 48 hrs by MTT assay; type: functional, cell-based; details: NCI-H441, 48 h
[25] = test system: MIA PaCa-2; assay: Cell cycle arrest in human MIAPaCa2 cells assessed as accumulation in G2/M phase at 0.6 uM after 48 hrs by propidium iodide staining based flow cytometry relative to control; type: functional
[26] = test system: MIA PaCa-2; assay: Induction of apoptosis in human MIAPaCa2 cells assessed as necrotic cells at 0.6 uM after 24 hrs by Annexin V-FITC/propidium iodide staining based flow cytometry (reference value: 0.06%); type: functional
[27] = Toxicity in NOD/SCID mouse xenografted with human MIAPaCa2 cells assessed as body weight loss at 25 mg/kg, ip administered every 3.5 days per week for 5 weeks; type: organism-based; details: in vivo
[28] = test system: MIA PaCa-2; assay: Induction of apoptosis in human MIAPaCa2 cells assessed as late apoptotic cells at 0.6 uM after 12 hrs by Annexin V-FITC/propidium iodide staining based flow cytometry (reference value: 0.07%); type: functional
[29] = test system: MIA PaCa-2; assay: Induction of apoptosis in human MIAPaCa2 cells assessed as late apoptotic cells at 0.6 uM after 48 hrs by Annexin V-FITC/propidium iodide staining based flow cytometry (reference value: 0.21%); type: functional
[30] = test system: MIA PaCa-2; assay: Induction of apoptosis in human MIAPaCa2 cells assessed as necrotic cells at 0.6 uM after 48 hrs by Annexin V-FITC/propidium iodide staining based flow cytometry (reference value: 0.06%); type: functional
[31] = test system: MIA PaCa-2; assay: Induction of apoptosis in human MIAPaCa2 cells assessed as live cells at 0.6 uM after 12 hrs by Annexin V-FITC/propidium iodide staining based flow cytometry (reference value: 98.9%); type: functional
[32] = test system: HCT-116; assay: Antiproliferative activity against human HCT116 cells after 48 hrs by MTT assay; type: functional, cell-based; details: HCT-116, 48 h
[33] = test system: MIA PaCa-2; assay: Induction of apoptosis in human MIAPaCa2 cells assessed as live cells at 0.6 uM after 48 hrs by Annexin V-FITC/propidium iodide staining based flow cytometry (reference value: 98.4%); type: functional
[34] = test system: MIA PaCa-2; assay: Induction of apoptosis in human MIAPaCa2 cells assessed as late apoptotic cells at 0.6 uM after 36 hrs by Annexin V-FITC/propidium iodide staining based flow cytometry (reference value: 0.24%); type: functional
[35] = test system: MIA PaCa-2; assay: Induction of apoptosis in human MIAPaCa2 cells assessed as necrotic cells at 0.6 uM after 12 hrs by Annexin V-FITC/propidium iodide staining based flow cytometry (reference value: 0.04%); type: functional
[36] = Antiproliferative activity against human CL1-5 cells after 48 hrs by MTT assay; type: functional, cell-based; details: CL1-5, 48 h
[37] = test system: MIA PaCa-2; assay: Induction of apoptosis in human MIAPaCa2 cells assessed as down regulation of Bak protein expression at 0.2 to 0.8 uM after 12 to 48 hrs by western immunoblot analysis; type: functional, cell-based
[38] = test system: MDA-MB-231; assay: Antiproliferative activity against human MDA-MB-231 cells at 20 uM after 48 hrs by MTT assay; type: functional, cell-based

With Oc1ccc2[nH]cc(C(Cc3ccc(CC(c4c[nH]c5ccc(O)cc45)c4c[nH]c5ccc(O)cc45)cc3)c3c[nH]c4ccc(O)cc34)c2c1 the IC50 [1] was greater than 20000 nM.
Oc1ccc2[nH]cc(C(c3c(F)c(F)c(C(c4c[nH]c5ccc(O)cc45)c4c[nH]c5ccc(O)cc45)c(F)c3F)c3c[nH]c4ccc(O)cc34)c2c1 showed an IC50 [1] of 560 nM.
For Oc1ccc2[nH]cc(C(c3c[nH]c4ccc(O)cc34)c3cccc4c(C(c5c[nH]c6ccc(O)cc56)c5c[nH]c6ccc(O)cc56)cccc34)c2c1, the IC50 [1] was 4000 nM.
Work on Oc1ccc2[nH]cc(C(c3cc(Br)c(C(c4c[nH]c5ccc(O)cc45)c4c[nH]c5ccc(O)cc45)cc3Br)c3c[nH]c4ccc(O)cc34)c2c1 yielded an IC50 [1] of 2450 nM.
For Oc1ccc2[nH]cc(C(c3ccc4cc(C(c5c[nH]c6ccc(O)cc56)c5c[nH]c6ccc(O)cc56)ccc4c3)c3c[nH]c4ccc(O)cc34)c2c1, the IC50 [1] was greater than 20000 nM.
Compound Oc1ccc2[nH]cc(C(c3ccc4ccc(C(c5c[nH]c6ccc(O)cc56)c5c[nH]c6ccc(O)cc56)cc4c3)c3c[nH]c4ccc(O)cc34)c2c1 has an IC50 [1] greater than 20000 nM.
Oc1ccc2[nH]cc(C(c3ccc(-c4ccc(C(c5c[nH]c6ccc(O)cc56)c5c[nH]c6ccc(O)cc56)cc4)cc3)c3c[nH]c4ccc(O)cc34)c2c1 gave an IC50 [1] of 10000 nM.
For Oc1ccc2[nH]cc(C(c3c(Cl)c(Cl)c(C(c4c[nH]c5ccc(O)cc45)c4c[nH]c5ccc(O)cc45)c(Cl)c3Cl)c3c[nH]c4ccc(O)cc34)c2c1, the Activity [2] was 16%, the Activity [3] was 12% and the Activity [4] was 55.8%. It also gave an IC50 [5] of 830 nM, an Activity [6] of 97.6% and an IC50 [7] of 470 nM. For the same compound, the Activity [8] was 0.3%, the Activity [9] was “Active” and the Activity [10] was 46.4%. It also gave an IC50 [1] of 560 nM, an IC50 [11] greater than 5000 nM and an Activity [12] of 5.28%. The IC50 [13] was 190 nM, the Activity [14] was 0.2% and the Activity [15] was 2.1%. The Activity [16] was 3.21%, the Activity [17] was 0.71% and the inhibition in vivo at 25 mg/kg [18] was 35%. For the same compound, the IC50 [19] was 2440 nM, the IC50 [20] was 3500 nM and the Activity [21] was 51.4%. The Activity [22] was “Active”, the Activity [23] was 95.6% and the IC50 [24] was 600 nM. The Activity [25] was 20%, the Activity [26] was 0.03% and the Activity [27] was “Non-Toxic”. It also gave an Activity [28] of 0.58%, an Activity [29] of 1.18% and an Activity [30] of 0.23%. The Activity [31] was 98.6%, the IC50 [32] was 1320 nM and the Activity [33] was 93.3%. The Activity [34] was 0.96%, the Activity [35] was 0.09% and the IC50 [36] was 630 nM. For the same compound, the Activity [37] was “Active”.
With Cc1cc(C(c2c[nH]c3ccc(O)cc23)c2c[nH]c3ccc(O)cc23)c(C)cc1C(c1c[nH]c2ccc(O)cc12)c1c[nH]c2ccc(O)cc12 the IC50 [1] was 8000 nM.
For Oc1ccc2[nH]cc(C(/C=C/c3ccc(/C=C/C(c4c[nH]c5ccc(O)cc45)c4c[nH]c5ccc(O)cc45)cc3)c3c[nH]c4ccc(O)cc34)c2c1, the IC50 [1] was 2000 nM.
For Oc1ccc2[nH]cc(C(c3c[nH]c4ccc(O)cc34)c3ccc(C(c4c[nH]c5ccc(O)cc45)c4c[nH]c5ccc(O)cc45)c4ccccc34)c2c1, the IC50 [1] was 20000 nM.
In the case of Oc1ccc2[nH]cc(C(c3ccc4ccc5ccc(C(c6c[nH]c7ccc(O)cc67)c6c[nH]c7ccc(O)cc67)nc5c4n3)c3c[nH]c4ccc(O)cc34)c2c1, the IC50 [1] is reported as greater than 20000 nM.
For Oc1ccc2[nH]cc(C(/C=C/c3ccc(C(CC(c4c[nH]c5ccc(O)cc45)c4c[nH]c5ccc(O)cc45)c4c[nH]c5ccc(O)cc45)cc3)c3c[nH]c4ccc(O)cc34)c2c1 (stereo not drawn), the IC50 [1] was greater than 20000 nM.
In the case of Oc1ccc2[nH]cc(C(c3ccc(-c4cc(C(c5c[nH]c6ccc(O)cc56)c5c[nH]c6ccc(O)cc56)c(-c5ccc(C(c6c[nH]c7ccc(O)cc67)c6c[nH]c7ccc(O)cc67)cc5)cc4C(c4c[nH]c5ccc(O)cc45)c4c[nH]c5ccc(O)cc45)cc3)c3c[nH]c4ccc(O)cc34)c2c1, the Activity [38] is reported as “inactive”.
Cc1c(C)c(C(c2c[nH]c3ccc(O)cc23)c2c[nH]c3ccc(O)cc23)c(C)c(C)c1C(c1c[nH]c2ccc(O)cc12)c1c[nH]c2ccc(O)cc12 showed an IC50 [1] of 1020 nM.
With Oc1ccc2[nH]cc(C(c3c[nH]c4ccc(O)cc34)c3c4c(c(C(c5c[nH]c6ccc(O)cc56)c5c[nH]c6ccc(O)cc56)c5ccccc35)CCCC4)c2c1 the IC50 [1] was 1500 nM.
Oc1ccc2[nH]cc(C(c3c[nH]c4ccc(O)cc34)c3c4ccccc4c(C(c4c[nH]c5ccc(O)cc45)c4c[nH]c5ccc(O)cc45)c4ccccc34)c2c1 gave an IC50 [1] of 710 nM.
